Results on 39 molecules are retold here after ChEMBL document CHEMBL4028801, “A multifactorial approach to hepatobiliary transporter assessment enables improved therapeutic compound development” (Toxicol Sci, 2013).

Molecules are shown by their SMILES. Structures can show the parent of a compound that is named as a salt.

Assay [1] has as its target T1, ATP-binding cassette sub-family C member 4 (Homo sapiens, UniProt O15439).
T1 sequence (O15439 whole entry): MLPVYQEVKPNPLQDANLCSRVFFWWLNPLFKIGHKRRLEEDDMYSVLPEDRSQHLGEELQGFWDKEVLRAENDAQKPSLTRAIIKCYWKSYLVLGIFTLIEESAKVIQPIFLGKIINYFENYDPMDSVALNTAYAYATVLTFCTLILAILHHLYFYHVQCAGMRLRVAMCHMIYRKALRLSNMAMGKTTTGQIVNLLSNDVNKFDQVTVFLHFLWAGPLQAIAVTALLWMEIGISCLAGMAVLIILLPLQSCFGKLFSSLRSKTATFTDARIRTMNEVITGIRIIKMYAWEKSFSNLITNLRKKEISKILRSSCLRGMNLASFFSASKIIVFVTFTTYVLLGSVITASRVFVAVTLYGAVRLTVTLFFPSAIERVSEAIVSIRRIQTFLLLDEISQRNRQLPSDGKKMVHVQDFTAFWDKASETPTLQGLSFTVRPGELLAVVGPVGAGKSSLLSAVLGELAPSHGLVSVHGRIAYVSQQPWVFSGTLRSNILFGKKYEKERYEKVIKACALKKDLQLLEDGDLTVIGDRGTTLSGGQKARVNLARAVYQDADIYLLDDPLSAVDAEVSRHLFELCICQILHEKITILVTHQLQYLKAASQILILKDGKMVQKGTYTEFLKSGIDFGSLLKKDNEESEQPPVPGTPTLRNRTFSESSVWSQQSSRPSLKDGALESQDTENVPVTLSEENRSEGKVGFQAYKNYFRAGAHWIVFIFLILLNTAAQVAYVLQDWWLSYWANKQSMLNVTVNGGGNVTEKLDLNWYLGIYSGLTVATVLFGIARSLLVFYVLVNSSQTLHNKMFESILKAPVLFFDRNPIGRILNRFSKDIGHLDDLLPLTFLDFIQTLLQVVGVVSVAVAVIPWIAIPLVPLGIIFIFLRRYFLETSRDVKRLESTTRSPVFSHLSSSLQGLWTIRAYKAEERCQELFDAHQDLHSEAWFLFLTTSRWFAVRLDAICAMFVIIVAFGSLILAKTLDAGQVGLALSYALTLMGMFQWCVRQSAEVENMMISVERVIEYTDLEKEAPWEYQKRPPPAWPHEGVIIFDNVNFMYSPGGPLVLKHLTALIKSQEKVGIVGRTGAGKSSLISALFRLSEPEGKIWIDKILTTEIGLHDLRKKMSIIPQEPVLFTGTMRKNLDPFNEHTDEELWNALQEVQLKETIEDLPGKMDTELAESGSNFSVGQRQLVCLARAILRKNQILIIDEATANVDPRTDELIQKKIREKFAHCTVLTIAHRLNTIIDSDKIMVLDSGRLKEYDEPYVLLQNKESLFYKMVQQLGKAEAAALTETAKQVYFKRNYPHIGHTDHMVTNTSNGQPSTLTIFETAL
Description: Inhibition of human MRP4 overexpressed in Sf9 cell membrane vesicles assessed as uptake of [3H]-estradiol-17beta-D-glucuronide in presence of ATP and GSH measured after 20 mins by membrane vesicle transport assay. The assay is classed as ADME, cell-based.

Assay [2] addresses ATP-binding cassette sub-family C member 3 (Homo sapiens, UniProt O15438). The experiment in a line: Inhibition of human MRP3 overexpressed in Sf9 insect cell membrane vesicles assessed as uptake of [3H]-estradiol-17beta-D-glucuronide in presence of ATP and GSH measured after 10 mins by membrane vesicle transport assay. In kind it is ADME, cell-based.
Assay [3] addresses ATP-binding cassette sub-family C member 2 (Homo sapiens, UniProt Q92887). The experiment in a line: Inhibition of human MRP2 overexpressed in Sf9 cell membrane vesicles assessed as uptake of [3H]-estradiol-17beta-D-glucuronide in presence of ATP and GSH measured after 20 mins by membrane vesicle transport assay.

Sequence of ATP-binding cassette sub-family C member 2 (Q92887 whole entry): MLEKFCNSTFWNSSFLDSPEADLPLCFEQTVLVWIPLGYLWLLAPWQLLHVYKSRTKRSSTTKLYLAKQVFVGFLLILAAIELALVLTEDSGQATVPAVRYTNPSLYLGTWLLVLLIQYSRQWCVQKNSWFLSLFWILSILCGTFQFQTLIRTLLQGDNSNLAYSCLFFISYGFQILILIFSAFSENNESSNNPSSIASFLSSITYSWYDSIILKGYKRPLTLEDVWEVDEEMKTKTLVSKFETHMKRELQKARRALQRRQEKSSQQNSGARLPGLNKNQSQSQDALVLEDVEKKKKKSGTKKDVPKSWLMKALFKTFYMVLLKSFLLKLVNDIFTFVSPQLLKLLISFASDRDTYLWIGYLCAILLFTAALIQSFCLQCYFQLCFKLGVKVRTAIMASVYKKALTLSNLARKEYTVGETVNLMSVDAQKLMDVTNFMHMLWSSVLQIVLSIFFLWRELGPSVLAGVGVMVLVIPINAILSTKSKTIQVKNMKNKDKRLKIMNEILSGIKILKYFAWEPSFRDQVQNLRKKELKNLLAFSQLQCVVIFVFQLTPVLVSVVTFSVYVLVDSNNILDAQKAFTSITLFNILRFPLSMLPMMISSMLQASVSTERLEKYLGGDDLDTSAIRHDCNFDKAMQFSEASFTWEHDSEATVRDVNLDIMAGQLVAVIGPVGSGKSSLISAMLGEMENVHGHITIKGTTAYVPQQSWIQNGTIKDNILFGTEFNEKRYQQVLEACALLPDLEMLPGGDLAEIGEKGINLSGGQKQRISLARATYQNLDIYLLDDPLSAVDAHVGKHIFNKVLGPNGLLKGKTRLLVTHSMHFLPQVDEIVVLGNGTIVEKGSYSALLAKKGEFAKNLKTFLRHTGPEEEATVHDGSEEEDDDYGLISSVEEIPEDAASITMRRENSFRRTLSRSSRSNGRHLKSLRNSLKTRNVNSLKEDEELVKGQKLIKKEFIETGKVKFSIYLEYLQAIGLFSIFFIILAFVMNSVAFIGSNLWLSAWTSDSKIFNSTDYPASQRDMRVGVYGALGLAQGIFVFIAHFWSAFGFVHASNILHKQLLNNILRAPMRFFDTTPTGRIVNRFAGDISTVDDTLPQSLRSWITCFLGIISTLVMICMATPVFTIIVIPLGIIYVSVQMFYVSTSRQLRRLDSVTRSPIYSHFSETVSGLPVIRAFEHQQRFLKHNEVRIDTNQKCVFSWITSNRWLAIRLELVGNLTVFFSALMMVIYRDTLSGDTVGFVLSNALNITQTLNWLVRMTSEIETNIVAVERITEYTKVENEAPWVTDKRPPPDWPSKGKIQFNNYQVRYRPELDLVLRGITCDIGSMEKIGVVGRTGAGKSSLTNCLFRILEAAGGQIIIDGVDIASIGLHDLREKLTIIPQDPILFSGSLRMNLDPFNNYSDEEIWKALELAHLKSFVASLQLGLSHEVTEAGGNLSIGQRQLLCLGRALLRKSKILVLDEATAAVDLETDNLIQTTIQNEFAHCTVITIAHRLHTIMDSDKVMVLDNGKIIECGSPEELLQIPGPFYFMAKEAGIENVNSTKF
Sequence of ATP-binding cassette sub-family C member 3 (O15438 whole entry): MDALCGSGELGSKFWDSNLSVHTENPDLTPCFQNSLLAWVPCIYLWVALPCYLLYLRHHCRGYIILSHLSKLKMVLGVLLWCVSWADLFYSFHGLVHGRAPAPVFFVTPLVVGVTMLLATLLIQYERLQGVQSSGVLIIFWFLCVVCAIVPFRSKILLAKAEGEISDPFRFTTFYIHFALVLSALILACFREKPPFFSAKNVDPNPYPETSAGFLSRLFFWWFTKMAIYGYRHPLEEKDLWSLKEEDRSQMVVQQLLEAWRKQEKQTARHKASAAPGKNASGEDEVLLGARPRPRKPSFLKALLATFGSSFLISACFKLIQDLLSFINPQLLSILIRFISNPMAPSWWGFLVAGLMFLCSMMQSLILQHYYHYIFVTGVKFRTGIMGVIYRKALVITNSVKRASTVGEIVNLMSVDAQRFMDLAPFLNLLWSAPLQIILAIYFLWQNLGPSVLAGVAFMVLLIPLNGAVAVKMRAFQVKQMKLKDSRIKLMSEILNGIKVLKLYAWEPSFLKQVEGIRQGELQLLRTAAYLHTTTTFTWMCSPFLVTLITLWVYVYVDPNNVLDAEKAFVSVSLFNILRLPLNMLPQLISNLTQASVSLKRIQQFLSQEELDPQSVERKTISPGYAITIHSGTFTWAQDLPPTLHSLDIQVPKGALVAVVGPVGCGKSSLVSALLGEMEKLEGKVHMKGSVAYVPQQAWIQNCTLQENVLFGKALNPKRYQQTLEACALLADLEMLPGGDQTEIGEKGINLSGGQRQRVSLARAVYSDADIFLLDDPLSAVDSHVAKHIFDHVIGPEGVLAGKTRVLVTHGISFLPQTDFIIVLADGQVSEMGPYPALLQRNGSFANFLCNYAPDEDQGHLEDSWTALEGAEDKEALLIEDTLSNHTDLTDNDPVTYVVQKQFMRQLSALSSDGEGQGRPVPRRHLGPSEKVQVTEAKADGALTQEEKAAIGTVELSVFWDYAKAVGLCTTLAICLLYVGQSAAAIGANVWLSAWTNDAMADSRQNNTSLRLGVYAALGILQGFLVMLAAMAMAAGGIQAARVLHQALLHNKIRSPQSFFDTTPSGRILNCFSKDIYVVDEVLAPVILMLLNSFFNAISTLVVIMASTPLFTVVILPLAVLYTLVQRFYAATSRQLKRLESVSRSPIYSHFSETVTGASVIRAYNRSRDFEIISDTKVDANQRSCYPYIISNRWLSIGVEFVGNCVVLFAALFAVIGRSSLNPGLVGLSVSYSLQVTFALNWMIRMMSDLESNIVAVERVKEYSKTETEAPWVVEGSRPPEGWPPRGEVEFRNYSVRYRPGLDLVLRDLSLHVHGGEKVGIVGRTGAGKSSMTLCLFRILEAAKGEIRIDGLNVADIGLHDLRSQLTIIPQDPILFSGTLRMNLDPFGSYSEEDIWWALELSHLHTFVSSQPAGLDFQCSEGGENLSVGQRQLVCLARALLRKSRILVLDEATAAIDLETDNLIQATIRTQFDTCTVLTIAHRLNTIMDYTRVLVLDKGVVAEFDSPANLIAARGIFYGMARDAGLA

Usually IC50 stands for the concentration needed to halve the response being measured. On to `CC[C@@H](CO)NCCN[C@@H](CC)CO` [ETHAMBUTOL HYDROCHLORIDE], for which the half-maximal inhibitory concentration (IC50) in assay [1] is over 133 µM; in assay [2], 88.2 µM; in assay [3], over 133 µM.
Take `COc1cc([C@@H]2c3cc4c(cc3[C@@H](O[C@@H]3O[C@@H]5CO[C@@H](C)O[C@H]5[C@H](O)[C@H]3O)[C@H]3COC(=O)[C@H]23)OCO4)cc(OC)c1O` [ETOPOSIDE]: the IC50 in assay [1], in assay [2] and in assay [3] was over 133 µM each time.
As for `OC(Cn1cncn1)(Cn1cncn1)c1ccc(F)cc1F` [FLUCONAZOLE], the IC50 in assay [1], in assay [2] and in assay [3] was over 133 µM throughout.
For `CNCCC(Oc1ccc(C(F)(F)F)cc1)c1ccccc1` (configuration not stated) [FLUOXETINE], the IC50 in assay [1], in assay [2] and in assay [3] was over 133 µM throughout.
Turning to `COCCCC/C(=N\OCCN)c1ccc(C(F)(F)F)cc1` [FLUVOXAMINE MALEATE], the IC50 in assay [1], in assay [2] and in assay [3] was over 133 µM each time.
For `NS(=O)(=O)c1cc(C(=O)O)c(NCc2ccco2)cc1Cl` [FUROSEMIDE], the IC50 in assay [1], in assay [2] and in assay [3] was over 133 µM throughout.
In the case of `NC(=O)NO` [HYDROXYUREA], the half-maximal inhibitory concentration (IC50) in assay [1], in assay [2] and in assay [3] was over 133 µM each time.
Consider `CN(C)CCCN1c2ccccc2CCc2ccccc21` [IMIPRAMINE], for which the IC50 in assay [1], in assay [2] and in assay [3] was over 133 µM each time.
For `Nc1ccn([C@@H]2CS[C@H](CO)O2)c(=O)n1` [LAMIVUDINE], the half-inhibitory concentration (IC50) in assay [1], in assay [2] and in assay [3] was over 133 µM each time.
Turning to `CCN(CC)CC(=O)Nc1c(C)cccc1C` [LIDOCAINE], the half-inhibitory concentration (IC50) in assay [1], in assay [2] and in assay [3] was over 133 µM each time.
For `NCCCC[C@H](N[C@@H](CCc1ccccc1)C(=O)O)C(=O)N1CCC[C@H]1C(=O)O` [LISINOPRIL ANHYDROUS], the 50% inhibitory concentration (IC50) in assay [1], in assay [2] and in assay [3] was over 133 µM in each case.
As for `Cc1ccc(Nc2c(F)cccc2Cl)c(CC(=O)O)c1` [LUMIRACOXIB], the IC50 in assay [1], in assay [2] and in assay [3] was over 133 µM throughout.
In the case of `CNCCCC12CCC(c3ccccc31)c1ccccc12` [MAPROTILINE], the IC50 in assay [1], in assay [2] and in assay [3] was over 133 µM throughout.
For the molecule `COC(=O)Nc1nc2ccc(C(=O)c3ccccc3)cc2[nH]1` [MEBENDAZOLE], the IC50 in assay [1] was 15.5 µM; in assay [2], over 133 µM; in assay [3] it was over 133 µM.
Regarding `CN(C)C(=N)N=C(N)N` [METFORMIN], the IC50 in assay [1], in assay [2] and in assay [3] was over 133 µM throughout.
Regarding `Cn1cc[nH]c1=S` [METHIMAZOLE], the IC50 in assay [1], in assay [2] and in assay [3] was over 133 µM in each case.
As to `COCCc1ccc(OCC(O)CNC(C)C)cc1` (configuration not stated) [METOPROLOL], the IC50 in assay [1], in assay [2] and in assay [3] was over 133 µM each time.
As to `Cc1ncc([N+](=O)[O-])n1CCO` [METRONIDAZOLE], the IC50 in assay [1], in assay [2] and in assay [3] was over 133 µM in each case.
Consider `Nc1cc(N2CCCCC2)nc(N)[n+]1[O-]` [MINOXIDIL], for which the IC50 in assay [1], in assay [2] and in assay [3] was over 133 µM in each case.
With `CN1CCN2c3ncccc3Cc3ccccc3C2C1` (configuration not stated) [MIRTAZAPINE], the IC50 in assay [1], in assay [2] and in assay [3] was over 133 µM in each case.
As for `COCCOC(=O)C1=C(C)NC(C)=C(C(=O)OC(C)C)C1c1cccc([N+](=O)[O-])c1` (configuration not stated) [NIMODIPINE], the IC50 in assay [1], in assay [2] and in assay [3] was over 133 µM throughout.
As to `O=C1CN(/N=C/c2ccc([N+](=O)[O-])o2)C(=O)N1` [NITROFURANTOIN], the figures for the IC50 in assay [1], in assay [2] and in assay [3] were 20.9 µM, over 133 µM and over 133 µM, respectively.
For `CCn1cc(C(=O)O)c(=O)c2cc(F)c(N3CCNCC3)cc21` [NORFLOXACIN], the IC50 in assay [1], in assay [2] and in assay [3] was over 133 µM in each case.
Consider `CC(C)NCC(O)COc1cccc2[nH]ccc12` (configuration not stated) [PINDOLOL], for which the IC50 in assay [1], in assay [2] and in assay [3] was over 133 µM throughout.
For the molecule `C[C@]12C=CC(=O)C=C1CC[C@@H]1[C@@H]2[C@@H](O)C[C@@]2(C)[C@H]1CC[C@]2(O)C(=O)CO` [PREDNISOLONE], the IC50 in assay [1], in assay [2] and in assay [3] was over 133 µM in each case.
Consider `CCN(CC)CCNC(=O)c1ccc(N)cc1` [PROCAINAMIDE], for which the IC50 in assay [1], in assay [2] and in assay [3] was over 133 µM throughout.
For `CN1CCN(CCCN2c3ccccc3Sc3ccc(Cl)cc32)CC1` [PROCHLORPERAZINE], the 50% inhibitory concentration (IC50) in assay [1], in assay [2] and in assay [3] was over 133 µM in each case.
Consider `OC(CCN1CCCC1)(c1ccccc1)C1CCCCC1` (configuration not stated) [PROCYCLIDINE], for which the IC50 in assay [1], in assay [2] and in assay [3] was over 133 µM in each case.
As for `CC(C)NCC(O)COc1cccc2ccccc12` (configuration not stated) [PROPRANOLOL], the IC50 in assay [1], in assay [2] and in assay [3] was over 133 µM in each case.
As for `OCCOCCN1CCN(C2=Nc3ccccc3Sc3ccccc32)CC1` [QUETIAPINE FUMARATE], the IC50 in assay [1], in assay [2] and in assay [3] was over 133 µM each time.
As for `CNC(=C[N+](=O)[O-])NCCSCc1ccc(CN(C)C)o1` [RANITIDINE], the IC50 in assay [1], in assay [2] and in assay [3] was over 133 µM throughout.
On to `Cc1nc2n(c(=O)c1CCN1CCC(c3noc4cc(F)ccc34)CC1)CCCC2` [RISPERIDONE], for which the IC50 in assay [1], in assay [2] and in assay [3] was over 133 µM each time.
In the case of `N#C[C@@H]1C[C@@H]2C[C@@H]2N1C(=O)[C@@H](N)C12CC3CC(CC(O)(C3)C1)C2` [SAXAGLIPTIN HYDROCHLORIDE], the IC50 in assay [1], in assay [2] and in assay [3] was over 133 µM each time.
Take `CN[C@@H]1C[C@H]2O[C@@](C)([C@@H]1OC)n1c3ccccc3c3c4c(c5c6ccccc6n2c5c31)C(=O)NC4` [STAUROSPORINE]: the IC50 was 37.9 µM in assay [1], over 133 µM in assay [2] and over 133 µM in assay [3].
For `CC/C(=C(\c1ccccc1)c1ccc(OCCN(C)C)cc1)c1ccccc1` [TAMOXIFEN], the concentration for half-maximal inhibition (IC50) in assay [1], in assay [2] and in assay [3] was over 133 µM each time.
For `C[C@]12CC[C@H]3[C@@H](CCC4=CC(=O)CC[C@@]43C)[C@@H]1CC[C@@H]2O` [TESTOSTERONE], the IC50 in assay [1], in assay [2] and in assay [3] was over 133 µM each time.
In the case of `CN(C)[C@@H]1C(O)=C(C(N)=O)C(=O)[C@@]2(O)C(O)=C3C(=O)c4c(O)cccc4[C@@](C)(O)[C@H]3C[C@@H]12` [TETRACYCLINE], the IC50 in assay [1], in assay [2] and in assay [3] was over 133 µM in each case.
For `Clc1ccccc1CN1CCc2sccc2C1` [TICLOPIDINE HYDROCHLORIDE], the IC50 in assay [1], in assay [2] and in assay [3] was over 133 µM each time.
With `CCS(=O)(=O)CCn1c([N+](=O)[O-])cnc1C` [TINIDAZOLE], the IC50 in assay [1], in assay [2] and in assay [3] was over 133 µM each time.
